Values joined by “and” are separate entries in the source; they are usually repeats but may differ in a detail not shown here. Equal values may be shown once. Toxic doses and inconclusive results are not listed. No stated cut-off is given here; in the data, active means T/C of 150% or more; inactive means T/C below 125%.
Test system: L1210 leukemia ip in BDF1 mice, survival T/C
Experiment: NCI In Vivo Anticancer Drug Screen. Data for tumor model L1210 Leukemia (intraperitoneal) in B6D2F1 (BDF1) mice
Conditions: endpoint: mean survival time, higher = longer survival
Method in brief: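 Transplanted-tumor mice were given test agent; controls received vehicle only. Survival readings from the two groups were divided (treated over control).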

[1] = dose: 100.0 mg/kg/injection, schedule: Q04DX003 (ip), vehicle: saline with Tween-80
[2] = dose: 200.0 mg/kg/injection, schedule: Q04DX003 (ip), vehicle: saline with Tween-80
[3] = dose: 400.0 mg/kg/injection, schedule: Q04DX003 (ip), vehicle: saline with Tween-80
[4] = dose: 100.0 mg/kg/injection, schedule: Q01DX001 (ip), vehicle: saline
[5] = dose: 100.0 mg/kg/injection, schedule: Q01DX009 (ip), vehicle: Klucel (hydroxypropylcellulose) (HPC)
[6] = dose: 100.0 mg/kg/injection, schedule: Q01DX001 (ip), vehicle: Klucel (hydroxypropylcellulose) (HPC)
[7] = dose: 200.0 mg/kg/injection, schedule: Q01DX001 (ip), vehicle: Klucel (hydroxypropylcellulose) (HPC)
[8] = dose: 200.0 mg/kg/injection, schedule: Q01DX001 (ip), vehicle: saline

Measured: T/C

CC(C)=C(Cl)C(C)(C)C(=O)O
inactive: [1] 103 % of control | [2] 101 % of control | [3] 97 % of control

COc1cccc(-c2cc3c(OC)ccc(OC)c3[nH]2)c1
inactive: dose: 100.0 mg/kg/injection, schedule: Q04DX002 (ip), vehicle: Klucel (hydroxypropylcellulose) (HPC) 99 % of control | dose: 200.0 mg/kg/injection, schedule: Q04DX002 (ip), vehicle: Klucel (hydroxypropylcellulose) (HPC) 89 % of control | dose: 400.0 mg/kg/injection, schedule: Q04DX002 (ip), vehicle: Klucel (hydroxypropylcellulose) (HPC) 99 % of control

Sc1cc(Cl)c(Cl)cc1Cl
inactive: dose: 100.0 mg/kg/injection, schedule: Q01DX001 (ip), vehicle: saline with Tween-80 97 % of control | dose: 200.0 mg/kg/injection, schedule: Q01DX001 (ip), vehicle: saline with Tween-80 90 % of control

CCC(CC)C(=O)O.[Ag]
inactive: [4] 101 % of control

COC(=O)c1ccc(=O)n(C/C=C(\C)CCC(=O)O)c1
inactive: dose: 100.0 mg/kg/injection, schedule: Q01DX009 (ip), vehicle: water 96 % of control | dose: 100.0 mg/kg/injection, schedule: Q04DX003 (ip), vehicle: other 93 % of control | dose: 200.0 mg/kg/injection, schedule: Q01DX009 (ip), vehicle: water 102 % of control | dose: 200.0 mg/kg/injection, schedule: Q04DX003 (ip), vehicle: other 93 % of control | dose: 400.0 mg/kg/injection, schedule: Q01DX009 (ip), vehicle: water 98 % of control | dose: 400.0 mg/kg/injection, schedule: Q04DX003 (ip), vehicle: other 91 % of control

O=S(=O)(O)c1cc(Cl)c(O)c(Cl)c1
inactive: [5] 95 % of control | dose: 200.0 mg/kg/injection, schedule: Q01DX009 (ip), vehicle: Klucel (hydroxypropylcellulose) (HPC) 102 % of control | dose: 400.0 mg/kg/injection, schedule: Q01DX009 (ip), vehicle: Klucel (hydroxypropylcellulose) (HPC) 106 % of control

ClCc1nc(-c2ccco2)no1
inactive: [5] 95 % of control

Cc1ccc(C(=O)OCc2ccc3c(c2)OCO3)cc1
inactive: dose: 222.0 mg/kg/injection, schedule: Q01DX Z (ip), vehicle: methylcellulose (MC) 97 % of control | dose: 333.0 mg/kg/injection, schedule: Q01DX Z (ip), vehicle: methylcellulose (MC) 89 % of control | dose: 500.0 mg/kg/injection, schedule: Q01DX Z (ip), vehicle: methylcellulose (MC) 89 % of control

Nc1nc(N)c(-c2ccccc2)c(C(=O)O)n1
inactive: dose: 50.0 mg/kg/injection, schedule: Q01DX001 (ip), vehicle: Klucel (hydroxypropylcellulose) (HPC) 101 % of control | dose: 50.0 mg/kg/injection, schedule: Q04DX003 (ip), vehicle: Klucel (hydroxypropylcellulose) (HPC) 94 % of control | [6] 95 % of control | dose: 100.0 mg/kg/injection, schedule: Q04DX003 (ip), vehicle: Klucel (hydroxypropylcellulose) (HPC) 105 % of control | [7] 95 % of control | dose: 200.0 mg/kg/injection, schedule: Q04DX003 (ip), vehicle: Klucel (hydroxypropylcellulose) (HPC) 105 % of control

CCOC(=O)CNC(=O)C1OC(n2cnc3c(N)ncnc32)C2OC(C)(C)OC12 (centres undefined)
inactive: dose: 100.0 mg/kg/injection, schedule: Q01DX005 (ip), vehicle: saline 95 % of control | dose: 200.0 mg/kg/injection, schedule: Q01DX005 (ip), vehicle: saline 92 % of control

CCCCCN(C(=N)CCCC)S(=O)(=O)c1ccccc1
inactive: [4] 89 % of control | [8] 95 % of control | dose: 400.0 mg/kg/injection, schedule: Q01DX001 (ip), vehicle: saline 106 % of control

Brc1ccc([I+]c2ccccc2)cc1
inactive: dose: 50.0 mg/kg/injection, schedule: Q01DX001 (ip), vehicle: saline 103 % of control | [4] 106 % of control | [8] 95 % of control

Nc1nc2c(ncn2-c2ccc(NS(=O)(=O)c3cccc(S(=O)(=O)F)c3)cc2)c(=O)[nH]1
inactive: dose: 75.0 mg/kg/injection, schedule: Q01DX001 (ip), vehicle: Klucel (hydroxypropylcellulose) (HPC) 97 % of control | dose: 300.0 mg/kg/injection, schedule: Q01DX001 (ip), vehicle: Klucel (hydroxypropylcellulose) (HPC) 88 % of control

CCCCCC(=O)N(CCCC)CCCC
inactive: dose: 100.0 mg/kg/injection, schedule: Q01DX001 (ip), vehicle: carboxymethylcellulose (CMC) 103 % of control | dose: 100.0 mg/kg/injection, schedule: Q01DX009 (ip), vehicle: carboxymethylcellulose (CMC) 97 % of control and 98 % of control | dose: 100.0 mg/kg/injection, schedule: Q04DX002 (ip), vehicle: carboxymethylcellulose (CMC) 102 % of control and 103 % of control | dose: 100.0 mg/kg/injection, schedule: Q04DX003 (ip), vehicle: carboxymethylcellulose (CMC) 98 % of control | dose: 200.0 mg/kg/injection, schedule: Q01DX001 (ip), vehicle: carboxymethylcellulose (CMC) 110 % of control | dose: 200.0 mg/kg/injection, schedule: Q01DX009 (ip), vehicle: carboxymethylcellulose (CMC) 94 % of control and 103 % of control | dose: 200.0 mg/kg/injection, schedule: Q04DX002 (ip), vehicle: carboxymethylcellulose (CMC) 97 % of control and 105 % of control | dose: 200.0 mg/kg/injection, schedule: Q04DX003 (ip), vehicle: carboxymethylcellulose (CMC) 97 % of control | dose: 400.0 mg/kg/injection, schedule: Q01DX001 (ip), vehicle: carboxymethylcellulose (CMC) 106 % of control | dose: 400.0 mg/kg/injection, schedule: Q01DX009 (ip), vehicle: carboxymethylcellulose (CMC) 98 % of control | dose: 400.0 mg/kg/injection, schedule: Q04DX002 (ip), vehicle: carboxymethylcellulose (CMC) 97 % of control and 109 % of control | dose: 400.0 mg/kg/injection, schedule: Q04DX003 (ip), vehicle: carboxymethylcellulose (CMC) 97 % of control

O=C(O)CC1Sc2ccccc2NC1=O (centres undefined)
inactive: [6] 105 % of control | [7] 94 % of control | dose: 400.0 mg/kg/injection, schedule: Q01DX001 (ip), vehicle: Klucel (hydroxypropylcellulose) (HPC) 105 % of control

COB1OB(OC)OB(OC)O1
inactive: dose: 500.0 mg/kg/injection, schedule: Q01DX Z (ip), vehicle: other 94 % of control | dose: 750.0 mg/kg/injection, schedule: Q01DX Z (ip), vehicle: other 104 % of control | dose: 1000.0 mg/kg/injection, schedule: Q01DX001 (ip), vehicle: carboxymethylcellulose (CMC) 109 % of control | dose: 1000.0 mg/kg/injection, schedule: Q01DX Z (ip), vehicle: other 107 % of control | dose: 1500.0 mg/kg/injection, schedule: Q01DX Z (ip), vehicle: other 118 % of control | dose: 2000.0 mg/kg/injection, schedule: Q01DX001 (ip), vehicle: carboxymethylcellulose (CMC) 113 % of control | dose: 3000.0 mg/kg/injection, schedule: Q01DX001 (ip), vehicle: carboxymethylcellulose (CMC) 113 % of control

COc1ccc(OC)c(C(C)(O)CC(=O)O)c1 (centres undefined)
inactive: dose: 100.0 mg/kg/injection, schedule: Q01DX009 (ip), vehicle: saline with Tween-80 100 % of control | [1] 96 % of control | dose: 200.0 mg/kg/injection, schedule: Q01DX009 (ip), vehicle: saline with Tween-80 105 % of control | [2] 93 % of control | dose: 400.0 mg/kg/injection, schedule: Q01DX009 (ip), vehicle: saline with Tween-80 97 % of control | [3] 101 % of control

CC(=O)Nc1ccc(CCc2nc(N)nc(Cl)c2-c2ccc(Cl)cc2)cc1
inactive: dose: 75.0 mg/kg/injection, schedule: Q01DX001 (ip), vehicle: saline 92 % of control | dose: 150.0 mg/kg/injection, schedule: Q01DX001 (ip), vehicle: saline 87 % of control | dose: 300.0 mg/kg/injection, schedule: Q01DX001 (ip), vehicle: saline 90 % of control

— PubChem BioAssay AID248 (DTP/NCI, 2004)
